Data set [1] is described as follows: Heparin affinity column elution with NaCl gradient. It counts as binding. The protocol: Conditioned media are thawed, pooled, salt concentration adjusted to 0.4 M NaCl and then applied on an heparin immobilized column (Hitrap Heparin 5 ml or Heparin-sepharose CL6B 50 ml, GE Biological) equilibrated with 10 mM Tris, or with 20 mM phosphate buffer, 0.4 M NaCl and 0.1 mM EDTA, pH 7.4. The bound proteins are eluted in the same buffer with a gradient from 0.4 M to 2 M NaCl. The fractions eluted from 0.8 M NaCl and more contained only wild type antithrombin or mutated antithrombins with high heparin affinity. […] The collected fractions are pooled and the salt concentration is decreased either by over night dialysis against 10 mM Tris, or 20 mM phosphate, and 0.1 M NaCl, pH 7.4 at 4° C. or applied on an HiPrep 26/10 desalting column equilibrated with 10 mM Tris, or 20 mM phosphate, and 0.1 M NaCl, pH 7.4. The antithrombin is then concentrated by ion exchange chromatography using a “Resource Q” 1 ml column (GE, Biological) equilibrated with 10 mM Tris, or 20 mM phosphate, and 0.1 M NaCl, pH 7.4 and eluted in the same buffer with a NaCl gradient from […] to 0.5 M or 20 mM to 0.5 M. The antithrombin concentration in each elution fraction is estimated by absorbance at 280 nm with an absorption coefficient ε=0.65 g^−1·l·cm^−1 and the integrity of purified wild type antithrombin or mutated antithrombins is tested by western blotting using the same couple of antibodies as described before, and electrophoresis on 10% acrylamide/bisacrylamide gel in native and denaturing conditions followed by coomassie brilliant blue R-250 staining (FIG. 4). Then, the antithrombin preparation is aliquoted and stored at −80° C. before use for functional assay. The same procedure is used to purify plasma antithrombin (used as internal reference) from human plasma.

The conditions of data set [2]: patients, curative pentasaccharide treatment; cited from earlier work.
Data set [3] in a line: Fondaparinux overdose and pharmacokinetics in mice. Type of data set: in vivo. The note with it: mouse. The procedure: 1—Determination of the Doses of Fondaparinux Inducing an Overdose in Mice Published data concerning fondaparinux pharmacokinetics in rats (Herbert J 4197), or experimental determination of fondaparinux pharmacokinetics in mice are used to develop the model.
To induce an overdose, a 3 fold doses (300 nmol/kg, or 0.52 mg/kg) is tested. At this dose, the fondaparinux plasma concentration is about 3.5 to 4 nmol/ml (or 6 to 7 mg/L). An anti-Xa activity is determined to ensure that an overdose is obtained.
Anti FXa activity measurements is performed as previously described using a Stachrom Heparin® kit on a STA (Stago, France) or a Rotachrom Heparin® kit with procedure adapted for measurement in microplate reader (Dynatech MR 5000). A calibration curve with pentasaccharide is performed, allowing the expression of the results in nmol/ml (or in mg/L) of plasma.
In mouse, an overdose of fondaparinux is observed at 300 nmol/kg (or 0.52 mg/kg) but maximal concentration in plasma is observed less than 15 min after sub-cutaneous injection.

The conditions of data set [4]: rats, cited from earlier work.

Where two headings read alike, the source gives them in different places.

Consider “AT-N135Q: human antithrombin with substitution of the amino acid at position 135 by Glutamine”, for which, in data set [1], the “elution from heparin affinity column compared with wild type antithrombin” value is given as “higher ionic strength than wild type antithrombin”.

As for `CO[C@H]1O[C@H](COS(=O)(=O)O)[C@@H](O[C@@H]2O[C@@H](C(=O)O)[C@@H](O[C@H]3O[C@H](COS(=O)(=O)O)[C@@H](O[C@@H]4O[C@H](C(=O)O)[C@@H](O[C@H]5O[C@H](COS(=O)(=O)O)[C@@H](O)[C@H](O)[C@H]5NS(=O)(=O)O)[C@H](O)[C@H]4O)[C@H](OS(=O)(=O)O)[C@H]3NS(=O)(=O)O)[C@H](O)[C@H]2OS(=O)(=O)O)[C@H](O)[C@H]1NS(=O)(=O)O` [fondaparinux], in data set [2], the “minimal equilibrium concentration in plasma” value is 0.46 to 0.62 mg/L and the “optimal equilibrium concentration in plasma” value is 1.20 to 1.26 mg/L. Further, the “dose at which an overdose is observed” value in data set [3] is on record as 0.52 mg/kg. Also, the Tmax in data set [4] (intra-venous injection of 100 nmol/kg (or 0.17 mg/kg)) is given as 5 min. Further, the Tmax in data set [4] (subcutaneous injection of 100 nmol/kg (or 0.17 mg/kg)) is on record as 30 min.
